Test results taken from patent publication US20240252508A1, “Novel glucose uptake inhibitors for use in the treatment of cancer” (NOVELYEAST BV, priority 2021, published 2024).

Test system: A549 lung adenocarcinoma cells
Experiment: A549 cell proliferation / growth inhibition
Type: cell-based, human
How it was run: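 A549 growth screened in RPMI with 1 mM glucose, compounds at 50 μM; cell number from counts of Hoechst-stained nuclei after 3 days. Growth curves also followed by IncuCyte phase-contrast confluency over 3–5 days (1000–1500 cells/well), DMSO ≤0.1%, ≥4 technical repeats.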

Cc1nc(Sc2nnc3n2CCCCC3)c2c(-c3cccs3)csc2n1 [WBC-A]
Potency in reducing maximal growth rate of A549 cells (1 mM glucose, 6.25-50 μM): intermediate potency | Proliferation of A549 cells in RPMI medium with 1 mM or 5 mM glucose (12.5-50 μM WBC-A): dose-dependent inhibition of growth
